How the values were obtained:
CCK-1 receptor = molecular target: T1, CCK-1 receptor (Homo sapiens, UniProt P32238); assay: CCK1 binding assay ([125I]-BH-CCK-8S displacement, CHO-K1 membranes); details: membranes of CHO-K1 cells stably transfected with the CCK-1 receptor, 20 pM [125I]-BH-CCK-8S, 0.3 μM PD-134,308 present, 60 min at 21±3° C.; for Ki: read-out: CCK1 pKi (converted)
T1 construct: expressed in transfected cells; host or cells: CHO-K1
T1 sequence (P32238 1-428): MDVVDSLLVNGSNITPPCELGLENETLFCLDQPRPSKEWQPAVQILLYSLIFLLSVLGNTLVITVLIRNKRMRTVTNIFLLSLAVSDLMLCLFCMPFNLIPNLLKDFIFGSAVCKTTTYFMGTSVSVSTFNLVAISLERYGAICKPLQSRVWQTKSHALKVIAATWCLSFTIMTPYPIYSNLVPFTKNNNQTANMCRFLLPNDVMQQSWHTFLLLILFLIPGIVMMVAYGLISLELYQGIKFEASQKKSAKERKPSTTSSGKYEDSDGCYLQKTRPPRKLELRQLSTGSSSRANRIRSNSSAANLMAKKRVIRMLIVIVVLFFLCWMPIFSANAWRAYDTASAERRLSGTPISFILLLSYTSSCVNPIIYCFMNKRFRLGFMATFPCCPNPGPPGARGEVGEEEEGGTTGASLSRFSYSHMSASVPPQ
In short: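 Membranes from CHO-K1 cells stably expressing CCK-1 incubated 1 h at 21±3° C with 20 pM [125I]-BH-CCK-8S in HEPES buffer pH 7.2 containing 0.3 μM PD-134,308 to block CCK-2. Bound radioactivity read by gamma counting after filtration. pKi derived via Cheng-Prusoff, with specific binding defined using 2-NAP.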

CCK2 receptor = molecular target: T2, CCK2 receptor (Homo sapiens, UniProt P32239); assay: CCK2 binding assay ([125I]-BH-CCK-8S displacement, HEKZFP membranes); details: membranes of doxycycline-induced HEKZFP cells, 20 pM [125I]-BH-CCK-8S, 60 min at 21±3° C.; for Ki: read-out: CCK2 pKi (converted)
T2 construct: analyzed for ZFP expression as well as CCK2R induction upon addition of doxycycline to the culture medium; endogenous in cells
T2 sequence (P32239 1-447): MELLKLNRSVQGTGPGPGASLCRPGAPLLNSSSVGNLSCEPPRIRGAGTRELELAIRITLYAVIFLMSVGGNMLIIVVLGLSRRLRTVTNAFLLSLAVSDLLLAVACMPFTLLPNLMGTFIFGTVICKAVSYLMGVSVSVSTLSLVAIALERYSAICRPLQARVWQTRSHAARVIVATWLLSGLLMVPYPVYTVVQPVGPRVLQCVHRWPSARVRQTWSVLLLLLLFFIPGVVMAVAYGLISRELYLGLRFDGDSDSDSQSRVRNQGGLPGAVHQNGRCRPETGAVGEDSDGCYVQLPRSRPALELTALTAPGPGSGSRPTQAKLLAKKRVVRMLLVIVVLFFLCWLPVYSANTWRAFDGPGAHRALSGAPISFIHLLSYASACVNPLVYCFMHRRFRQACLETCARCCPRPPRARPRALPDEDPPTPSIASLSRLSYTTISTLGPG

| Ki (CCK-1 receptor) [nM] | Ki (CCK2 receptor) [nM] | CCK1 pKi (CCK-1 receptor) | CCK2 pKi (CCK2 receptor) | SMILES |
| --- | --- | --- | --- | --- |
| 126 | 1000 | – | – | CC(CNC(=O)c1ccc(Br)cc1NS(=O)(=O)c1cccc2nsnc12)c1ccc(Cl)cc1 (stereo not drawn) [Example 21, 2-(Benzo[1,2,5]thiadiazole-4-sulfonylamino)-4-bromo-N-[2-(4-chloro-phenyl)-propyl]-benzamide] |
| 501 | 631 | – | – | CC(Cc1ccc(Cl)cc1)NC(=O)c1ccc(C(F)(F)F)cc1NS(=O)(=O)c1cccc2nsnc12 (stereo not drawn) [Example 22, 2-(Benzo[1,2,5]thiadiazole-4-sulfonylamino)-N-[2-(4-chloro-phenyl)-1-methyl-ethyl]-4-trifluoromethyl-benzamide] |
| 1000 | 631 | – | – | CC(Cc1ccc(Cl)cc1)NC(=O)c1ccc(Br)cc1NS(=O)(=O)c1cccc2scnc12 (stereo not drawn) [Example 23, 2-(Benzothiazole-4-sulfonylamino)-4-bromo-N-[2-(4-chloro-phenyl)-1-methyl-ethyl]-benzamide] |
| 100 | 1260 | – | – | CC(CNC(=O)c1ccc(Br)cc1NS(=O)(=O)c1c(F)cccc1F)c1ccc(Cl)cc1 (stereo not drawn) [Example 24, 4-Bromo-N-[2-(4-chloro-phenyl)-propyl]-2-(2,6-difluoro-benzenesulfonylamino)-benzamide] |
| 2510 | 39.8 | – | – | O=C(N[C@@H](Cc1ccccc1)C(=O)O)c1ccc(C(F)(F)F)cc1NS(=O)(=O)c1cccc2nsnc12 [Example 26, 2-[2-(Benzo[1,2,5]thiadiazole-4-sulfonylamino)-4-trifluoromethyl-benzoylamino]-3-phenyl-propionic acid] |
| 6310 | 79.4 | – | – | O=C(N[C@@H](Cc1ccccc1)C(=O)O)c1cc(Cl)c(Cl)cc1NS(=O)(=O)c1cccc2nccnc12 [Example 29, 2-[4,5-Dichloro-2-(quinoxaline-5-sulfonylamino)-benzoylamino]-3-phenyl-propionic acid] |
| 63.1 | 2510 | – | – | CC(CNC(=O)c1ccc(Br)cc1NS(=O)(=O)c1c(F)cccc1F)c1ccc(Cl)c(Cl)c1 (stereo not drawn) [Example 30, 4-Bromo-N-[2-(3,4-dichloro-phenyl)-propyl]-2-(2,6-difluoro-benzenesulfonylamino)-benzamide] |
| – | – | 7.1 | 6.2 | CC(CNC(=O)c1ccc(Br)cc1NS(=O)(=O)c1cccc2nsnc12)c1ccccc1 (stereo not drawn) [Example 31, 2-(Benzo[1,2,5]thiadiazole-4-sulfonylamino)-4-bromo-N-(2-phenyl-propyl)-benzamide] |
| 398 | 100 | – | – | O=C(N[C@@H](Cc1ccc(Cl)c(Cl)c1)C(=O)O)c1ccc(I)cc1NS(=O)(=O)c1c(F)cccc1F [Example 32, 3-(3,4-Dichloro-phenyl)-2-[2-(2,6-difluoro-benzenesulfonylamino)-4-iodo-benzoylamino]-propionic acid] |
| 158 | 39.8 | – | – | O=C(N[C@@H](Cc1ccc(Cl)cc1)C(=O)O)c1ccc(I)cc1NS(=O)(=O)c1cccc2nsnc12 [Example 33, 2-[2-(Benzo[1,2,5]thiadiazole-4-sulfonylamino)-4-iodo-benzoylamino]-3-(4-chloro-phenyl)-propionic acid] |
| 398 | 100 | – | – | O=C(N[C@@H](Cc1ccc(Cl)cc1)C(=O)O)c1ccc(I)cc1NS(=O)(=O)c1c(F)cccc1F [Example 34, 3-(4-Chloro-phenyl)-2-[2-(2,6-difluoro-benzenesulfonylamino)-4-iodo-benzoylamino]-propionic acid] |
| – | – | 7.2 | 6.3 | C[C@H](CNC(=O)c1ccc(Br)cc1NS(=O)(=O)c1cccc2nsnc12)c1ccccc1 [Example 35, (S)-2-(Benzo[1,2,5]thiadiazole-4-sulfonylamino)-4-bromo-N-(2-phenyl-propyl)-benzamide] |
| – | – | 7.1 | 5.8 | C[C@@H](CNC(=O)c1ccc(Br)cc1NS(=O)(=O)c1cccc2nsnc12)c1ccccc1 [Example 36, (R)-2-(Benzo[1,2,5]thiadiazole-4-sulfonylamino)-4-bromo-N-(2-phenyl-propyl)-benzamide] |
| 398 | 3980 | – | – | C[C@H](CNC(=O)c1ccc(Br)cc1NS(=O)(=O)c1c(F)cccc1F)c1ccccc1 [Example 37, (S)-4-Bromo-2-(2,6-difluoro-benzenesulfonylamino)-N-(2-phenyl-propyl)-benzamide] |
| 316 | 2000 | – | – | C[C@@H](CNC(=O)c1ccc(Br)cc1NS(=O)(=O)c1c(F)cccc1F)c1ccccc1 [Example 38, (R)-4-Bromo-2-(2,6-difluoro-benzenesulfonylamino)-N-(2-phenyl-propyl)-benzamide] |
| 25.1 | 251 | – | – | CC(CNC(=O)c1ccc(I)cc1NS(=O)(=O)c1cccc2nsnc12)c1ccc(Cl)c(Cl)c1 (stereo not drawn) [Example 39, 2-(Benzo[1,2,5]thiadiazole-4-sulfonylamino)-N-[2-(3,4-dichloro-phenyl)-propyl]-4-iodo-benzamide] |
| 126 | 316 | – | – | CC(CNC(=O)c1ccc(I)cc1NS(=O)(=O)c1cccc2nccnc12)c1ccc(Cl)c(Cl)c1 (stereo not drawn) [Example 40, N-[2-(3,4-Dichloro-phenyl)-propyl]-4-iodo-2-(quinoxaline-5-sulfonylamino)-benzamide] |
| 631 | 50.1 | – | – | O=C(N[C@@H](Cc1ccc(Cl)cc1Cl)C(=O)O)c1ccc(Br)cc1NS(=O)(=O)c1c(F)cccc1F [Example 41, 2-[4-Bromo-2-(2,6-difluoro-benzenesulfonylamino)-benzoylamino]-3-(2,4-dichloro-phenyl)-propionic acid] |
| 31.6 | 3160 | – | – | CC(CNC(=O)c1ccc(I)cc1NS(=O)(=O)c1c(F)cccc1F)c1ccc(Cl)c(Cl)c1 (stereo not drawn) [Example 42, N-[2-(3,4-Dichloro-phenyl)-propyl]-2-(2,6-difluoro-benzenesulfonylamino)-4-iodo-benzamide] |
| 126 | 251 | – | – | CC(CNC(=O)c1ccc(Cl)cc1NS(=O)(=O)c1c(F)cccc1F)c1ccc(Cl)cc1Cl (stereo not drawn) [Example 43, 4-Chloro-N-[2-(2,4-dichloro-phenyl)-propyl]-2-(2,6-difluoro-benzenesulfonylamino)-benzamide] |
| 100 | 3980 | – | – | CC(CNC(=O)c1ccc(Cl)cc1NS(=O)(=O)c1c(F)cccc1F)c1ccc([N+](=O)[O-])cc1 (stereo not drawn) [Example 44, 4-Chloro-2-(2,6-difluoro-benzenesulfonylamino)-N-[2-(4-nitro-phenyl)-propyl]-benzamide] |
| 251 | 1580 | – | – | CC(CNC(=O)c1ccc(Cl)cc1NS(=O)(=O)c1c(F)cccc1F)c1ccc(C(F)(F)F)cc1 (stereo not drawn) [Example 45, 4-Chloro-2-(2,6-difluoro-benzenesulfonylamino)-N-[2-(4-trifluoromethyl-phenyl)-propyl]-benzamide] |
| 1580 | 63.1 | – | – | O=C(N[C@H](Cc1ccc(Cl)cc1Cl)C(=O)O)c1ccc(Cl)cc1NS(=O)(=O)c1c(F)cccc1F [Example 46, 2-[4-Chloro-2-(2,6-difluoro-benzenesulfonylamino)-benzoylamino]-3-(2,4-dichloro-phenyl)-propionic acid] |
| 100 | 5010 | – | – | CC(CNC(=O)c1ccc(I)cc1NS(=O)(=O)c1c(F)cccc1F)c1ccc(Cl)cc1Cl (stereo not drawn) [Example 47, N-[2-(2,4-Dichloro-phenyl)-propyl]-2-(2,6-difluoro-benzenesulfonylamino)-4-iodo-benzamide] |

— patent publication US7855292B2, “Sulfonamide compounds” (Janssen Pharmaceutica NV, priority 2004, dated 2010)
